{
  "source": "patent US20210308089A1",
  "about": "“METHODS OF TREATING AND/OR PREVENTING VIRAL INFECTIONS AND/OR DISEASES CAUSED BY VIRUSES IN A SUBJECT IN NEED THEREOF” (priority 2020, published 2021)",
  "test_system": "patients of the REDUCE-IT and earlier EPA placebo-controlled trials",
  "experiment": "Example 3: adverse events by risk ratio, icosapent ethyl vs placebo (candidate categories; infectious disease terms of interest)",
  "conditions": "R-I",
  "data": [
    {"compound": "CC/C=C\\C/C=C\\C/C=C\\C/C=C\\C/C=C\\CCCC(=O)OCC", "note": "[icosapent ethyl, eicosapentaenoic acid ethyl ester]", "values": [
      {"measurement": "NNT: Carotid bruit (AE table)", "value": 315},
      {"measurement": "NNT: Cholestasis (AE table)", "value": "−1.67e+07"},
      {"measurement": "NNT: Chrohn's Disease (AE table)", "value": 2045},
      {"measurement": "NNT: Cognitive Decline: Attention disorders and disturbances (AE table)", "value": "−8362005"},
      {"measurement": "NNT: Cognitive Decline: Cognitive and attention disorders and disturbances (AE table)", "value": "−8362005"},
      {"measurement": "NNT: Cough (AE table)", "value": "−69394"},
      {"measurement": "NNT: Decreased Appetite (AE table)", "value": "−215"},
      {"measurement": "NNT: Deep Venous Thromboembolism (AE table)", "value": 1364},
      {"measurement": "NNT: Depression: Depressed mood disorders and disturbances (AE table)", "value": "−340"},
      {"measurement": "NNT: Depression: Depressive disorders (AE table)", "value": "−314"},
      {"measurement": "NNT: Depression: Depressive disorders - Agitated depression (AE table)", "value": "−2044"},
      {"measurement": "NNT: Depression: Depressive disorders - Depression (AE table)", "value": "−408"},
      {"measurement": "NNT: Depression: Depressive disorders - Major depression (AE table)", "value": "−2044"},
      {"measurement": "NNT: Depression: Depressive disorders - Persistent depressive disorder (AE table)", "value": "−4088"},
      {"measurement": "NNT: Depression: Mood alterations - Depressed mood (AE table)", "value": "−3344802"},
      {"measurement": "NNT: Depression: Mood alterations - Depressive symptom (AE table)", "value": 4091},
      {"measurement": "NNT: Depression: Mood alterations with depressive symptoms (AE table)", "value": 4096},
      {"measurement": "NNT: Dermatitis psoriasiform (AE table)", "value": "−4089"},
      {"measurement": "NNT: Dermatitis, allergic (AE table)", "value": 454},
      {"measurement": "NNT: Diabetic Nephropathy (AE table)", "value": 4100},
      {"measurement": "NNT: ESRD (AE table)", "value": 4092},
      {"measurement": "NNT: Ear infection (AE table)", "value": 585},
      {"measurement": "NNT: Embolism and Thrombosis (AE table)", "value": "−1358"},
      {"measurement": "NNT: Emphysema (AE table)", "value": 511},
      {"measurement": "NNT: Epilepsy (AE table)", "value": "−1.67e+07"},
      {"measurement": "NNT: Erectile dysfunction (AE table)", "value": 232},
      {"measurement": "NNT: Furuncle (AE table)", "value": 818},
      {"measurement": "NNT: Gastroenteritis, viral (AE table)", "value": 372},
      {"measurement": "NNT: Gastroesophageal reflux (AE table)", "value": 682},
      {"measurement": "NNT: Gingivitis (AE table)", "value": 818},
      {"measurement": "NNT: Glomerulonephritis and Nephrotic Syndrome (AE table)", "value": 1023},
      {"measurement": "NNT: Guttate psoriasis (AE table)", "value": "−4089"},
      {"measurement": "NNT: Helicobacter infection (AE table)", "value": 1023},
      {"measurement": "NNT: Hepatitis C (AE table)", "value": "−4089"},
      {"measurement": "NNT: Herpes Zoster (AE table)", "value": 1371},
      {"measurement": "NNT: Herpes simplex (AE table)", "value": 1364},
      {"measurement": "NNT: Hyperglycemia (AE table)", "value": 186},
      {"measurement": "NNT: Hyperkalemia (AE table)", "value": 178},
      {"measurement": "NNT: Hypertension (AE table)", "value": 171},
      {"measurement": "NNT: Hypertensive Crisis (AE Table)", "value": 315},
      {"measurement": "NNT: Hypokalemia (AE table)", "value": "−815"},
      {"measurement": "NNT: Hypomagnesemia (AE table)", "value": 292},
      {"measurement": "NNT: Infected bite (AE table)", "value": 2046},
      {"measurement": "NNT: Influenza (AE table)", "value": 515},
      {"measurement": "NNT: Influenza like illness (AE table)", "value": 1024},
      {"measurement": "NNT: Jaundice cholestatic (AE table)", "value": "−1022"},
      {"measurement": "NNT: Large intestine polyps (AE table)", "value": 511},
      {"measurement": "NNT: Limb Fractures and Dislocations (AE table)", "value": 1024},
      {"measurement": "NNT: Lupus (AE table)", "value": 4090},
      {"measurement": "NNT: Microalbuminuria (AE table)", "value": 372},
      {"measurement": "NNT: Migraine (AE table)", "value": "−584"},
      {"measurement": "NNT: Mucosal inflammation (AE table)", "value": 2046},
      {"measurement": "NNT: Multiple Sclerosis (AE table)", "value": 4090},
      {"measurement": "NNT: Muscle spasms (AE table)", "value": 95},
      {"measurement": "NNT: NASH (AE table)", "value": 818},
      {"measurement": "NNT: NASH for b/l NFS >0.675 (AE table)", "value": 273},
      {"measurement": "NNT: NASH+Hepatic Steatosis for NFS >0.675 (AE table)", "value": 209},
      {"measurement": "NNT: Nasopharyngitis, Mild Severity (AE table)", "value": 516},
      {"measurement": "NNT: Nephrolithiasis (AE table)", "value": "−1017"},
      {"measurement": "NNT: Nephropathies (AE table)", "value": 455},
      {"measurement": "NNT: Nephrotic Syndrome (AE table)", "value": 4090},
      {"measurement": "NNT: Orthopnea (AE table)", "value": 1023},
      {"measurement": "NNT: PTSD (AE table)", "value": 4092},
      {"measurement": "NNT: Pancytopenia (AE table)", "value": 1023},
      {"measurement": "NNT: Pneumonia (AE table)", "value": 293},
      {"measurement": "NNT: Proteinuria (AE table)", "value": 455},
      {"measurement": "NNT: Psoriasis (AE table)", "value": "−341"},
      {"measurement": "NNT: Psoriatic Conditions (AE table)", "value": "−292"},
      {"measurement": "NNT: Psychosis: Psychotic disorder NEC (AE table)", "value": 4091},
      {"measurement": "NNT: Pulmonary Edema (AE table)", "value": 511},
      {"measurement": "NNT: Respiratory Failure (AE table)", "value": 2050},
      {"measurement": "NNT: Respiratory tract infection (AE table)", "value": 1368},
      {"measurement": "NNT: Rheumatoid Arthritis (AE table)", "value": 1363},
      {"measurement": "NNT: Rhinitis (AE table)", "value": 682},
      {"measurement": "NNT: Schizophrenia NEC (AE table)", "value": 4091},
      {"measurement": "NNT: Sepsis (AE table)", "value": 455},
      {"measurement": "NNT: Severe chronic obstructive pulmonary disease (AE table)", "value": 1365},
      {"measurement": "NNT: Severe dermatitis, allergic (AE table)", "value": 1363},
      {"measurement": "NNT: Severe gastroenteritis (AE table)", "value": 1023},
      {"measurement": "NNT: Severe sepsis (AE table)", "value": 585},
      {"measurement": "NNT: Severe systemic inflammatory response syndrome (AE table)", "value": 818},
      {"measurement": "NNT: Severe urinary tract infection (AE table)", "value": 585},
      {"measurement": "NNT: Systemic inflammatory response syndrome (AE table)", "value": 682},
      {"measurement": "NNT: Tooth infection (AE table)", "value": 455},
      {"measurement": "NNT: Ulcerative Colitis (AE table)", "value": 4090},
      {"measurement": "NNT: Upper respiratory tract infection (AE table)", "value": 516},
      {"measurement": "NNT: Vascular hypertensive disorder (AE table)", "value": 124},
      {"measurement": "NNT: Vulvovaginal mycotic infection (AE table)", "value": 682},
      {"measurement": "NNT: Wheezing (AE table)", "value": 315},
      {"measurement": "Risk Ratio (95% CI): ADHD (AE table)", "value": "1.000 (0.141 to 7.097) −1"},
      {"measurement": "Risk Ratio (95% CI): Allergic sinusitis (AE table)", "value": "0.500 (0.092 to 2.729) 3"},
      {"measurement": "Risk Ratio (95% CI): Alzheimer's Disease (AE table)", "value": "1.000 (0.290 to 3.452) −1"},
      {"measurement": "Risk Ratio (95% CI): Asthma (AE table)", "value": "1.076 (0.742 to 1.560) −1"},
      {"measurement": "Risk Ratio (95% CI): Atelectasis (AE table)", "value": "0.500 (0.243 to 1.030) 3"},
      {"measurement": "Risk Ratio (95% CI): Bipolar Disease (AE table)", "value": "0.333 (0.035 to 3.204) 4"},
      {"measurement": "Risk Ratio (95% CI): Blood CPK increased (AE table)", "value": "0.684 (0.485 to 0.964) 2"},
      {"measurement": "Risk Ratio (95% CI): Blood glucose increased (AE table)", "value": "0.400 (0.126 to 1.275) 3"},
      {"measurement": "Risk Ratio (95% CI): Bone Fractures (AE table)", "value": "2.000 (0.181 to 22.053) −3"},
      {"measurement": "Risk Ratio (95% CI): Bronchiectasis (AE table)", "value": "0.500 (0.125 to 1.998) 3"},
      {"measurement": "Risk Ratio (95% CI): Bronchitis chronic (AE table)", "value": "0.667 (0.273 to 1.630) 2"},
      {"measurement": "Risk Ratio (95% CI): CKD (AE table)", "value": "1.123 (0.766 to 1.646) −1"},
      {"measurement": "Risk Ratio (95% CI): COPD (AE table)", "value": "1.084 (0.837 to 1.405) −1"},
      {"measurement": "Risk Ratio (95% CI): Carotid bruit (AE table)", "value": "0.435 (0.207 to 0.913) 3"},
      {"measurement": "Risk Ratio (95% CI): Cholestasis (AE table)", "value": "1.000 (0.063 to 15.986) −1"},
      {"measurement": "Risk Ratio (95% CI): Chrohn's Disease (AE table)", "value": "0.333 (0.035 to 3.204) 4"},
      {"measurement": "Risk Ratio (95% CI): Cognitive Decline: Attention disorders and disturbances (AE table)", "value": "1.000 (0.141 to 7.097) −1"}
    ]}
  ]
}
